Measurements taken from US12528846B2, “BH4 stabilized peptides and uses thereof” (Dana-Farber Cancer Institute, Inc., priority 2013, dated 2026).
“Also recorded” adds a separate entry of the source. Positions of bridges follow the written chain, without caps; N, C: chain ends. Non-standard residues stand in square brackets, D forms with d. Residues, ends and D or L forms follow the SMILES beside them. S5 = C=CCCC[C@](C)(N)C(=O)O; Nle = CCCC[C@H](N)C(=O)O

How the values were obtained:
Recombinant BAX [1] = biological target: T1, Recombinant BAX (Homo sapiens, UniProt Q07812); assay: Liposomal ANTS/DPX release, BIM SAHBA-triggered BAX activation; format: biochemical; details: 1.5 μM BIM SAHBA, 0.75 μM BAX, variety of peptide concentrations
T1 construct: made in house
Description: In these experiments, the BCL-2 BH4 SAHBA and unmodified BCL-2 BH4 peptide were incubated with 1.5 μM BIM SAHBA (Gavathiotis et al., Nature 455:1076-1081, 2008), 0.75 μM recombinant BAX protein, and 5 μL liposomes loaded with the ANTS and DPX (described above) at a variety of different concentrations.
A complete panel of BCL-2 BH4 SAHBA alanine and glutamine point mutants (0.75 μM) were screened for inhibition of BIM SAHBA (0.75 μM)-triggered BAX activation (0.75 μM) using the liposome release assay described above. The data were normalized to a 100% percent positive control level of liposome release achieved using BIM SAHBA and BAX alone, after correction for any intrinsic fluorescence detected for each FITC-labeled BCL-2 BH4 SAHB (0%). […] The alanine scanning data are also useful for designing the placement of staples in the BCL-2 BH4 peptides.

Recombinant BAX [2] = biological target: T1, Recombinant BAX; assay: HXMS of BH4 SAHBs after pre-equilibration with recombinant BAX protein; format: binding; details: 15-minute pre-equilibration, 1:2 BAX protein to BH4 SAHB molar ratio
Description: (§1) The structural stability of the BCL-2 BH4 staple-scan panel of SAHBs was determined by hydrogen/deuterium mass spectrometry (HXMS). In these experiments, the BH4 SAHBs were labeled with deuterium for 2 seconds, 5 seconds, 10 seconds, 1 minute, 10 minutes, and 1 hour, followed by quenching with cold phosphate buffer (pH 2.5), and then immediately subjected to desalting and injection on a LCT Premier Mass Spectrometer (Waters Corporation). The relative uptake of deuterium was determined for each BH4 SAHB by dividing the mass of the corresponding undeuterated control. Labeling was performed with the BH4 SAHB peptide alone and following a 15-minute pre-equilibration with recombinant BAX protein (purified as previously described in Walensky et al. (Mol. Cell 24:199-210, 2006) and Gavathiotis et al. (Nature 455:1076-1081, 2008)) at a 1:2 BAX protein to BH4 SAHB peptide molar ratio.

Recombinant BAX [3] = biological target: T1, Recombinant BAX; assay: Liposomal ANTS/DPX release, heat-induced BAX activation; format: biochemical; details: 500 nM BAX, liposomes, 37° C.
endogenous BAX = biological target: T2, endogenous BAX (Homo sapiens, UniProt Q07812); assay: Streptavidin pull-down of biotinylated SAHB from HeLa cell lysates; format: binding; details: 20 μM biotinylated peptide, 16 hrs at 4° C.
T2 construct: endogenous in cells; host or cells: HeLa
Description: HeLa cell lysates (0.5 mg) were incubated with vehicle (DMSO), biotinylated BCL-2 BH4 SAHBA (20 μM), or BCL-2 BH4 SAHBA L23A (20 μM) for 16 hrs at 4° C. prior to addition of high-capacity streptavidin agarose resin (Thermo Scientific). After three successive washes, associated protein was eluted from the resin into LDS sample buffer and analyzed by Western blot with the anti-BAX N20 antibody (Santa Cruz). […] The immunoblot in FIG. 19B is representative of three independent experiments.

Recombinant BAX [4] = biological target: T1, Recombinant BAX; assay: HXMS of recombinant BAX with liposomes, BIM SAHB with or without BCL-2 BH4 SAHBA; format: biochemical; details: molar equivalent of BIM SAHB plus two molar excess of peptide
Description: Recombinant BAX protein was pre-equilibrated for 15 min with liposomes in the presence or absence of a molar equivalent of BIM SAHB (FIG. 15B) or a molar equivalent of BIM SAHB and a two molar excess of BCL-2 BH4 SAHBA (FIG. 15C), and then labeled with deuterium for 10 seconds, 1 minute, 10 minutes, and 2 hours. Following the corresponding incubation period in D20 buffer, each sample was quenched with ice-cold guanidine chloride buffer (pH 2.6) and then subjected to proteolysis on ice for 5 minutes. The samples were next injected on a custom Waters NanoACQUITY UPLC HDX Manager for analysis as described above. Mass spectra were obtained with a Synapt G2 mass spectrometer (Waters Corporation) and analyzed with the DynamX software package (Waters Corporation). The data shown in FIG. 15B are the duplicate of two experiments, where the relative difference (Da) shown for each BAX peptide fragment is equivalent to the relative deuterium uptake of the peptide in the BIM SAHB-activated BAX sample minus the relative deuterium uptake of the corresponding peptide in the BAX alone control. […] Mass spectra were obtained with a Synapt G2 mass spectrometer (Waters Corporation) and analyzed with the DynamX software package (Waters Corporation). […]

Recombinant BAX [5] = biological target: T1, Recombinant BAX; assay: HXMS of recombinant BAX with or without BCL-2 BH4 SAHBA; format: binding; details: two molar excess of peptide, 10 seconds to 2 hours
Description: In additional studies, recombinant BAX protein was labeled with deuterium in the presence or absence of a two molar access of BCL-2 BH4 SAHBA for 10 seconds, 1 minute, 10 minutes, and 2 hours. Following the corresponding incubation period in D20 buffer, each sample was quenched with ice-cold phosphate buffer (pH 2.5) and injected on a custom Waters NanoACQUITY UPLC HDX Manager for analysis as described in Wales et al. (Anal. Chem. 80:6815-6820, 2008). Mass spectra were obtained with a Synapt G2 mass spectrometer (Waters Corporation) and analyzed with the DynamX software package (Waters Corporation). The data shown in FIG. 15A are the average of two duplicate experiments, where the relative difference (Da) shown for each peptide is equivalent to the relative deuterium uptake of the corresponding peptide in the BAX alone control minus the relative deuterium uptake of the peptide in the BCL-2 BH4 SAHBA-bound BAX sample. A significant relative difference is established as 0.4 Da. […] A significant relative difference in uptake is observed in the region of BAX al and the loop between α1 and α2, indicative of structural stabilization of this region of BAX protein as a result of BCL-2 BH4 SAHBA binding.

[6] = Hydrogen/deuterium mass spectrometry (HXMS) of BH4 SAHB peptide alone (structural stability); format: physicochemical; details: deuterium labeling 2 seconds to 1 hour
Description: as §1

Recombinant BAX [7] = biological target: T1, Recombinant BAX; assay: BAX 6A7 immunoprecipitation (N-terminal conformational activation); format: biochemical; details: 1 μM BAX, liposomes, 1 μM BIM SAHB, peptide 0-2.0 μM, 30 min
Description: An additional experiment was performed to determine whether BCL-2 BH4 SAHB binding would be capable of preventing the N-terminal unfolding characteristic of activated BAX. In this experiment, recombinant BAX was incubated with liposomes and a molar equivalent of BIM SAHB in the presence of increasing amounts of BCL-2 BH4 SAHBA or BCL-2 BH4 SAHBA L23A. After a 30 min pre-incubation period to allow for activation to proceed, the liposomal mixtures were subjected to immunoprecipitation with the BAX 6A7 antibody (Santa Cruz), which specifically recognizes the N-terminal epitope on BAX (residues 12-24) that is exposed during activation (Hsu et al., 1997). Immunoprecipitated protein was resolved by electrophoresis and immunoblotted with an antibody specific for BAX. […] Importantly, the L23A mutant version of the BH4 peptide, which was shown in the liposomal release assay to disrupt its inhibitory activity, had no effect on BAX 6A7 reactivity. The BAX 6A7 immunoprecipitation was carried out as follows. Recombinant BAX (1 μM) was mixed with liposomes and 1 μM BIM SAHB in the presence of increasing doses of BCL-2 BH4 SAHBA or BCL-2 BH4 SAHBA L23A (0 μM, 0.25 μM, 0.5 μM, 1.0 μM, and 2.0 μM). Following a 30 min incubation at room temperature, the mixture was immunoprecipitated with a-BAX 6A7 (Santa Cruz) and resolved by electrophoresis. […]

[8] = tested on: BAX-overexpressing HeLa cells; assay: Viability of transfected HeLa cells treated with staurosporine (CellTiter-Glo); format: cell-based; details: 325 nM staurosporine, 24-hour treatment
Description: Viability of the transfected cells subjected to 24-hour treatment with 325 nM staurosporine or no treatment with staurosporine was determined by addition of CellTiter-Glo reagent (Promega). The data shown in FIG. 20A are representative of three independent experiments.
This BCL-2-based rescue is negated upon co-expression of BAX with the L23A mutant form of BCL-2 (FIG. 20A).

T1 sequence (Q07812 whole entry): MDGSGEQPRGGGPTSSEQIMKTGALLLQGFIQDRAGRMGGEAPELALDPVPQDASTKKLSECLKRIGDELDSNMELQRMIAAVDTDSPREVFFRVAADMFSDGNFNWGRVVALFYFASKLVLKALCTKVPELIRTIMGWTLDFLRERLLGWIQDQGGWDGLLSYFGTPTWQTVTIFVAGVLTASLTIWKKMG
T2 sequence (Q07812 whole entry): as above

| deuterium uptake of BH4 SAHB upon addition of recombinant BAX protein (Recombinant BAX [2]) | heat-induced activation of BAX and BAX-mediated poration (Recombinant BAX [3]) | pull-down of BAX from HeLa cell lysates (endogenous BAX) | pull-down of BAX from HeLa cell lysates (endogenous BAX; listed as biotinylated-BCL-2 BH4 SAHBA) | deuterium uptake by BAX protein upon peptide engagement (Recombinant BAX [5]) | relative deuterium uptake of BH4 SAHB peptide alone [6] | Compound | BAX activation in response to BIM SAHBA treatment (liposomal poration) (Recombinant BAX [1]) | differences in relative uptake of BIM SAHB-treated BAX compared to BAX alone (Recombinant BAX [4]) | BAX 6A7 reactivity (BIM SAHB-triggered BAX activation) (Recombinant BAX [7]) | apoptosis of transfected HeLa cells [8] |
| --- | --- | --- | --- | --- | --- | --- | --- | --- | --- | --- |
| reduced uptake | dose-responsively decreased | specifically interacted | specifically immunoprecipitated | decrease in deuterium uptake | markedly reduced uptake | CCCC[C@H](NC(=O)[C@@H](NC(=O)[C@@H](NC(=O)[C@H](CCC(=O)O)NC(C)=O)[C@@H](C)CC)C(C)C)C(=O)N[C@@H](CCCCN)C(=O)N[C@@H](Cc1ccc(O)cc1)C(=O)N[C@H](C(=O)N[C@@H](Cc1c[nH]cn1)C(=O)N[C@@H](Cc1ccc(O)cc1)C(=O)N[C@@H](CCCCN)C(=O)N[C@@H](CC(C)C)C(=O)N[C@@H](CO)C(=O)N[C@@]1(C)CCCC=CCCC[C@@](C)(C(=O)N[C@@H](Cc2c[nH]c3ccccc23)C(=O)N[C@@H](CC(=O)O)C(=O)N[C@@H](C)C(N)=O)NC(=O)[C@H](Cc2ccc(O)cc2)NC(=O)CNC(=O)[C@H](CCCNC(=N)N)NC1=O)[C@@H](C)CC [BCL-2 BH4 SAHBA] (Ac-EIV[Nle]KYIHYKLS[S5]RGY[S5]WDA-NH2; staple 13-17; N-terminus and C-terminus assumed) | dose-responsively decreased; also recorded: dose-responsively blocks | complete suppression; also recorded: can block the changes in BAX conformation | dose-responsively reduces; also recorded: dose-responsively inhibited |  |
|  |  |  |  |  |  | CN[C@@H]1C[C@H]2O[C@@](C)([C@@H]1OC)n1c3ccccc3c3c4c(c5c6ccccc6n2c5c31)C(=O)NC4 [staurosporine] |  |  |  | induces apoptosis |
